Reference: US20210290153A1, “DRUG DELIVERY DEVICES HAVING ADSORBED MEDICATION ADHERENCE MARKERS THEREON, PACKAGING INCLUDING THE SAME AND METHODS OF FORMING THE SAME” (Xhale, Inc., priority 2018, published 2021)

Conditions: maltodextrin-coated vitamin tablet sealed approximately one week with sorbent pad loaded with approximately 200 mg 2-butanol; ingested; breath at approximately 10 minutes after ingestion
Procedure: Referring to FIG. 3, a vitamin tablet was dipped into a maltodextrin/water solution and the tablet was allowed to dry. A tiny sorbent pad loaded with approximately 200 mg of 2-butanol was added to the bottom of a tiny plastic vial to simulate a blister cavity. The dry coated tablet was then added to the vial and sealed via a screw top. After approximately one week, the vial was opened and the tablet was ingested by an individual.

For `CCC(C)O` (stereo not shown) [2-butanol], the “2-butanone, a metabolite of 2-butanol, detected in the individual's breath” value was “significant quantity”.
